Several values for one entry are separate records, joined by “and”; a condition that tells them apart may be missing. Equal entries are not always repeated. Where two headings read alike, the source gives them in different places.
Key:
[1] = system: U-87MG glioblastoma xenograft; settings: for Median Survival: VEGF 0.3 μg/kg where given
Description: The human luciferase-expressing glioblastoma cell line U-87MG was used for all GBM experiments. Cells were routinely cultured in EMEM with 10% FBS, at 37° C. with 5% CO2.
BALB/c nude mice were orthotropically xenografted with U87 glioma cells (2×10^5) by stereotactic (2 mm right and 1 mm posterior to the bregma, 3.5 mm deep from the dura) injection into the brain. Mouse tumor progression was measured by IVIS at different time points (0, 1, 3, 7 . . . every 7 days until 60 days).
The DNA methylating drug temozolomide (TMZ) was used as therapy for GBM model mice. […] Tumor growth was monitored by in vivo bioluminescent imaging. Mice were observed over 60 days and their survival rates recorded on a Kaplan-Meier survival curve.

[2] = system: blood-brain barrier (BBB); assay: Penetration of PEGylated fluorescent nanoparticles through the BBB (IVIS, immunohistochemistry); format: in vivo, FVB mice; settings: 0.3 μg/Kg VEGF iv 45 min before PEGylated nanoparticles
Description: COOH-modified nanoparticles (20 to 500 nm) were covalently modified with methoxy (MeO)-PEG-amine (NH2) according to previously published protocols (Nance et al., Sci Transl Med 4(149): 149ra119; 2012). PEGylated fluorescent nanoparticles of 20 nm, 100 nm and 500 nm were used to investigate the biodistribution and extravasation after intravenous injection and perfusion into FVB mice. These nanoparticles were quantified by IVIS and immunohistochemistry.
All IVIS images were taken using a Xenogen IVIS Spectrum device (PerkinElmer, Waltham, Mass.).
The mice were subjected to perfusion following routine procedures 30 minutes after injection of the nanoparticles and the brain tissues were analyzed by IVIS imaging and immunohistochemistry. FIG. 2, panel A. The amount of nanoparticles accumulated in the brain tissue (i.e., across the BBB) was determined by measuring the intensity of the fluorescent signals. Results are illustrated in FIG. 2, panels B-D.

[3] = system: MCAO ischaemic stroke model; assay: Middle Cerebral Artery Occlusion (MCAO) model, hMSC cell therapy with VEGF pre-treatment; format: in vivo, rats
Description: The procedure published by Boyko and colleagues (Boyko, et al., Journal of Neuroscience Methods 193(2): 246-253; 2010) was used to create a middle cerebral artery occlusion (MCAO) model in rats. In brief, the left side carotid bifurcation was exposed with a self-retractor. After carefully separating the […] (ICA) from peripheral soft tissue, a small opening was created at the proximal ICA. Silicon-coated 4-0 monofilament nylon was inserted from the opening and penetrated forward to the beginning of middle cerebral artery (MCA). An O2C oximeter was used to transcranially monitor the ipsilateral MCA blood flow. Once blood flow decreased successfully, the nylon suture was fixed in situ, mimicking ischaemic stroke. After 90 minutes of ischaemic injury, the suture was removed, allowing reperfusion. A stable and reproducible cerebral infarction could be created with this procedure. […] MCAO model rats were divided into four groups: […] Discosoma sp. Red (Ds-Red)-expressing human mesenchymal stem cells (hMSCs) were used for MCAO cell therapy. […] To evaluate the infarction size, rats were sacrificed three days after ischaemic-reperfusion injury and treatment. […] Brain slices were then scanned and the infarction size was calculated by measuring the pale area with ImageJ software. […]

[4] = system: blood-brain barrier (BBB)
[5] = system: U87 MG human glioblastoma xenograft; assay: Effect of intravenous VEGF on tumor luminescence in U87 MG intracranial xenograft (IVIS); format: in vivo, BALB/c NU mice; settings: paired t-test per mouse
[6] = system: blood-brain barrier (BBB); remark: listed apart in the source

Cn1nnc2c(C(N)=O)ncn2c1=O [TMZ, temozolomide]
Delay of GBM growth ([1]; 5 mg/kg TMZ, vs GBM mice not treated by TMZ): at least 20 days | Median Survival vs vehicle (% increase) ([1]; GBM mice, TMZ 5 mg/kg): 31.58 % increase | Median Survival ([1]; GBM mice, TMZ 5 mg/kg): 50 days | Median Survival vs vehicle (% increase) ([1]; GBM mice, TMZ 20 mg/kg): 31.58 % increase | Median Survival ([1]; GBM mice, TMZ 20 mg/kg): 50 days

vascular endothelial growth factor [VEGF]
Median Survival with VEGF vs TMZ alone (% increase) ([1]; GBM mice, TMZ 5 mg/kg): 10 % increase | Delay in tumor growth by TMZ with VEGF pre-treatment ([1]; VEGF 0.3 μg/kg before 5 mg/kg TMZ): further enhanced the delay in tumor growth | Nanoparticles crossing the BBB (fluorescence intensity in brain) [2]: facilitated the nanoparticles to cross BBB | Brain infarction ([3]; MCAO, VEGF pre-treatment 0.3 μg/kg): reduced the brain infarction | hMSCs delivered to the brain (Ds-Red fluorescent intensity) ([3]; hMSCs 35 min after 0.3 μg/kg VEGF, vs control): more hMSCs were delivered to the brain | Cortex, signal to noise ratio T1WI Post-iv ([4]; 5 minutes after 0.2 mmol/kg gadolinium contrast agent, given 45 min after VEGF): 58.30 | Increase % of signal to noise ratio (detectable level of gadolinium contrast agent in brain) ([4]; average, VEGF 0.3 ug/kg pre-treatment): 15.5% | Signal to noise ratio (SNR) enhancement, individual mice ([4]; each of the 3 VEGF-treated mice): 17% and 14% and 15.5% | Change of tumor size from D21 to D27 [5]: tumors were larger | Persistence of increased BBB permeability ([6]; 0.3 μg/kg VEGF): at least 60 min | Time of maximum BBB permeability after VEGF ([6]; 0.3 μg/kg VEGF): about 45 min | Time after VEGF injection at which significant BBB permeability increase was observed ([6]; 0.3 μg/kg VEGF, EB injected after VEGF): 15 min | Time to return to normal BBB permeability ([6]; after VEGF administration): 2 h | Duration of increased BBB permeability ([6]; low dose VEGF): about 1 hr | BBB permeability of EB (Evans Blue content of brain tissue) ([6]; mice, VEGF 0.1-2.0 μg/kg, vs saline control): increased BBB permeability | Time of peak BBB permeability after VEGF administration ([6]; summary statement): 45 min | Increase of BBB permeability ([6]; temporary increase after VEGF administration): approximately three-fold

— US20210275640A1, “METHODS FOR ENHANCING PERMEABILITY TO BLOOD-BRAIN BARRIER, AND USES THEREOF” (ACADEMIA SINICA, priority 2014, published 2021)
